According to publication PMC10147923, “Pain-causing stinging nettle toxins target TMEM233 to modulate NaV1.7 function” (Nature Communications, 2023):
Values joined by “and” are separate entries in the source; they are usually repeats but may differ in a detail not shown here. Equal entries are not always repeated. Where two headings read alike, the source gives them in different places. Positions of bridges follow the written chain, without caps; N, C: chain ends. Residues, ends and D or L forms follow the SMILES beside them.

Tests used:
[1] = test system: hNaV1.7/β1; test: Persistent current, CHO hNaV1.7/β1; type: cell-based, human; conditions: ExTxA 1 µM, mean, n = 11
[2] = target: TMEM233 (Homo sapiens, UniProt B4DJY2); test: Currents in Cos-1 cells transfected with TMEM233 only; type: cell-based
Chain of TMEM233 (B4DJY2 whole entry): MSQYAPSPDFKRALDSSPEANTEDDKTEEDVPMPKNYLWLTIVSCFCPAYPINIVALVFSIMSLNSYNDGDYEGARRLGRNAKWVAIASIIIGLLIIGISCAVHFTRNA
Description: (§1) Whole-cell patch clamp experiments involving HEK293, COS-1, CHO, ND7/23, F11, SH-SY5Y and TE-671 cells were performed on a QPatch II automated electrophysiology platform (Sophion Bioscience, Ballerup, Denmark) as previously described. Cells at approximately 70–80% confluency were harvested from T75 flasks using TrypLE Express at 37 °C for 2–5 min and resuspended in DMEM with 25 mM HEPES (Sigma-Aldrich, NSW, Australia), 100 U/mL Penicillin-Streptomycin (Gibco) and 40 µg/mL trypsin inhibitor from Glycine max (soybean) (Sigma Aldrich) prior to recovery on a QStirrer (Sophion) for 30 min. 16-channel patch plates with a patch hole diameter of 1 μm and resistance of 2 ± 0.02 MΩ were used. Cell positioning and sealing parameters were as follows: positioning pressure −60 mbar, minimum seal resistance 0.1 GΩ, holding potential −100 mV, holding pressure −20 mbar. Whole-cell currents were filtered at 5 kHz and acquired at 25 kHz. Series resistance compensation was used and set to 70%.

[3] = test system: hNaV1.7/TMEM233; test: Persistent current, CHO hNaV1.7/TMEM233; type: cell-based, human; conditions: ExTxA 1 µM; hNaV1.7/TMEM233; mean ± SEM, n = 16
[4] = test system: hNaV1.4; test: Persistent current, HEK293-hNaV1.4/β1; type: cell-based, human; conditions: ExTxA 1 µM
[5] = test system: Cos-1 cells; test: Currents in untransfected Cos-1 cells; type: cell-based; conditions: ExTxA 1 µM, mean ± SEM, n = 6
Description: as §1

[6] = target: NaV1.7 (Homo sapiens, UniProt Q15858); type: cell-based; conditions: ExTxA 100 nM; individual cells
Chain of NaV1.7 (Q15858 whole entry): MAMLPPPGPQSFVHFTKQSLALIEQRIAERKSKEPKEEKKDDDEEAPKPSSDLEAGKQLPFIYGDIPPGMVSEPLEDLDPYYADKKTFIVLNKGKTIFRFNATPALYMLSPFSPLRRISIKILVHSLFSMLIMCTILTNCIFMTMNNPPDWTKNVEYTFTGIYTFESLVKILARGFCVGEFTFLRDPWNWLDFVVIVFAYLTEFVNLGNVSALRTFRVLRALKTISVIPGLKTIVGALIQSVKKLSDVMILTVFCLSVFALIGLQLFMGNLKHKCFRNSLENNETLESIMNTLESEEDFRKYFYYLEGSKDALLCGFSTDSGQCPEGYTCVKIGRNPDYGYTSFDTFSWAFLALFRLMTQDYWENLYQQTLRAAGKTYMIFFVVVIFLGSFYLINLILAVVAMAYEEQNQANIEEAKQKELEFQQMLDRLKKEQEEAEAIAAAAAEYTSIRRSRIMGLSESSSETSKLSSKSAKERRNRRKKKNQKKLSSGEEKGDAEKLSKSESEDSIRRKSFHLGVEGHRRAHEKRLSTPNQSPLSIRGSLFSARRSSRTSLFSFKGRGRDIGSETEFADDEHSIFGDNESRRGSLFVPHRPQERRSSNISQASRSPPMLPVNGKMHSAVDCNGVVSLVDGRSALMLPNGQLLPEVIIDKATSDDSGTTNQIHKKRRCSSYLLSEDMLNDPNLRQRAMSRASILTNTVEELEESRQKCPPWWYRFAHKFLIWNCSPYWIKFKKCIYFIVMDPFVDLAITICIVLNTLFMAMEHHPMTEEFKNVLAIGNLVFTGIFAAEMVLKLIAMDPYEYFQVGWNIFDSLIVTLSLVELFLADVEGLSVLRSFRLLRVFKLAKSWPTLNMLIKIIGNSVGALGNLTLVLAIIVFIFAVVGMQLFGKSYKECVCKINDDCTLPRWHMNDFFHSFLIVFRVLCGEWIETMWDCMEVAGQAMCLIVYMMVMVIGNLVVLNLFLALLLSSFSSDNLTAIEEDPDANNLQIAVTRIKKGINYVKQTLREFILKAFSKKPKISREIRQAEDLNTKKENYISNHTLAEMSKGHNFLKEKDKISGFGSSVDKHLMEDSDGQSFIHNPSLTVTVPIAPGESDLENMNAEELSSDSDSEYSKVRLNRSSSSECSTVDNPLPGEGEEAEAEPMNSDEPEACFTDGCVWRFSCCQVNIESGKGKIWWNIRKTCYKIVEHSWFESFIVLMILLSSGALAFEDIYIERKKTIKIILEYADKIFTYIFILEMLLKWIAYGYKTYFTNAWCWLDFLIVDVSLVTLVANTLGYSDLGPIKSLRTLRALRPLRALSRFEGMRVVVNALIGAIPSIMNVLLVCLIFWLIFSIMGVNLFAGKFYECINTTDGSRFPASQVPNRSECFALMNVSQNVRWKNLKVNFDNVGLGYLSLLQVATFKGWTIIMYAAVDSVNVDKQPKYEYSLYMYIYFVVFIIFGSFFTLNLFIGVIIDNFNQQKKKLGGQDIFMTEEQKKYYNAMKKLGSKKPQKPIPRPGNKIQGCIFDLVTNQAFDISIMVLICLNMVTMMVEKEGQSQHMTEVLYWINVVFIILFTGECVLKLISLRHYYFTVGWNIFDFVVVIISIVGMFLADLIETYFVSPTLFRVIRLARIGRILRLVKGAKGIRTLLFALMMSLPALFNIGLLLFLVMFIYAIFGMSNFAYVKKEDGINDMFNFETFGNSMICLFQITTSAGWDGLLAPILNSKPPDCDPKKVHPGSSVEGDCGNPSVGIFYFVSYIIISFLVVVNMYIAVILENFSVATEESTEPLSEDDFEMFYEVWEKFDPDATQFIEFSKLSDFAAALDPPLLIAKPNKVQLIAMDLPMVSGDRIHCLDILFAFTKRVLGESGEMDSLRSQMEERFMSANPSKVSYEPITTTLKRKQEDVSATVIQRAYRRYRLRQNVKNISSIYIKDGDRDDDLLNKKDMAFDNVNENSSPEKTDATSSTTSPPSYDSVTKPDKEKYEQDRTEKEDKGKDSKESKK
Chain of NaV1.7 (Q07699 19-218, further chain): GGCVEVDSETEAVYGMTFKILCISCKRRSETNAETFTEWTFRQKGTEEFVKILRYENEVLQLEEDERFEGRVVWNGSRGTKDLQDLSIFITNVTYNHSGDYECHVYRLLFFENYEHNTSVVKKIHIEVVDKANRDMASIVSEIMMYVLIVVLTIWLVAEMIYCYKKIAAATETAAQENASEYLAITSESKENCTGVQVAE

[7] = test system: hNaV1.7; type: cell-based, human
[8] = test system: NaV1.7 endogenously expressed in TE-671 cells; test: Persistent NaV current, TE-671 cells (automated patch clamp); type: cell-based
[9] = test system: NaV currents in F11 cells; test: Persistent current, F11 cells; type: cell-based; conditions: ExTxA 1 µM; individual cells
[10] = test system: wild-type C57BL/6 mice; conditions: cited from earlier work
[11] = target: T1, NaV1.7/TMEM233 (Homo sapiens, UniProt B4DJY2+Q15858); type: cell-based
Description: Current-voltage (IV) curves were determined in HEK-NaV1.7 cells, in the absence and presence of TMEM233, from a series of step pulses (500 ms) ranging from −110 to +55 mV (5 mV increments, repetition interval 5 s) before and after incubation with ExTxA (1 μM) from a holding potential of −90 mV. Currents were converted to conductance (G) using G = I/(V − Vrev), with Vrev being the reversal potential, plotted against voltage and fitted with a Boltzmann equation to obtain GV (conductance-voltage) curves. Voltage dependence of steady-state fast inactivation was determined by a subsequent 10 ms pulse to −20 mV immediately following the 500 ms depolarization step detailed above to assess the available non-inactivated channels.

[12] = target: T1, NaV1.7/TMEM233; type: cell-based; conditions: extracellular ExTxA
Description: To determine recovery from fast inactivation, a 20 ms pulse to 0 mV from a holding potential of −90 mV was used to induce fast inactivation. A subsequent recovery period, ranging from 1 ms to 2216 ms in 50% increments at −90 mV, was followed by a last 20 ms test pulses to 0 mV to determine the time-dependence of recovery from fast inactivation. The proportion of available channels was determined by normalizing peak currents from the last to the first pulse. A two-phase exponential equation was fit to the normalized current, plotted as a function of time, to determine the time constants τ1 and τ2 of recovery from fast inactivation.

[13] = test system: NaV currents in ND7/23 cells; test: Persistent current, ND7/23 cells; type: cell-based; conditions: ExTxA 1 µM; individual cells
[14] = test system: NaV1.9; type: cell-based, mouse
[15] = individual cells, paired with buffer

## CC[C@H](C)[C@@H]1NC(=O)[C@H](CCCNC(=N)N)NC(=O)[C@H](Cc2ccccc2)NC(=O)[C@H](CC(C)C)NC(=O)[C@H](CO)NC(=O)[C@@H]2CSSC[C@@H]3NC(=O)[C@H]([C@@H](C)O)NC(=O)[C@H](CSSC[C@H](NC(=O)[C@H](CCCNC(=N)N)NC(=O)[C@@H]4CCCN4C(=O)[C@@H](N)CC(C)C)C(=O)N[C@@H](CC(=O)O)C(=O)N[C@@H](CO)C(=O)N4CCC[C@H]4C(=O)N[C@@H](Cc4ccccc4)C(=O)N2)NC(=O)[C@H](CCCCN)NC(=O)[C@H](CC(=O)O)NC(=O)CNC(=O)[C@H](CSSC[C@@H](C(=O)N[C@H](C(=O)N2CCC[C@H]2C(=O)N[C@@H](CC(=O)O)C(=O)N[C@H](C(=O)O)C(C)C)C(C)C)NC(=O)[C@H](CC(C)C)NC(=O)CNC(=O)[C@H](Cc2ccccc2)NC(=O)[C@H]([C@@H](C)CC)NC(=O)[C@@H]2CCCN2C(=O)[C@H](CC(C)C)NC(=O)[C@@H]2CCCN2C(=O)[C@H](C(C)C)NC3=O)NC(=O)[C@H](CC(C)C)NC(=O)CNC1=O [ExTxA, excelsatoxin A] (H-LPRCDSPFCSLFRIGLCGDKCTCVPLPIFGLCVPDV-OH; disulfide 4-21, 9-23, 17-32)
[1]
  Δ persistent current (I40 ms/Ipeak) in CHO hNaV1.7: 0.0001 ± 0.001 and 0.0001365
[2]
  ExTxA-induced persistent current: -7.493 ± 8.833
[2]; cells lacking endogenous NaV currents
  ExTxA-induced currents, TMEM233 alone: did not result in either voltage-gated or ExTxA-induced currents
[3]
  CHO cells persistent current (I40 ms): -2.010 ± 0.277 nA
[4]; individual cells
  persistent current (I40 ms/Ipeak): -0.00323 and 0.000561 and 0.001128 and 1.82e-5 and 3.19e-5 and 0.001575 and 0.001393 and -0.00031 and -0.00116
[4]; mean
  Δ persistent current (I40 ms/Ipeak; buffer cf. ExTxA): 7.89E-07 ± 0.0005 and 7.889e-7
[5]
  ExTxA-induced persistent current: -2.019 ± 5.908 pA
[6]
  hiPSC-derived sensory neurons persistent current (I40 ms/Ipeak): 0.1753 and 0.2081 and 0.0959 and 0.1857 and 0.092
[7]
  persistent current, Predicted (LS) mean diff.: -0.04169
[7]; ExTxA 100 nM in ECS, mean ± SEM, n = 10
  persistent current (I40 ms/Ipeak): 0.04 ± 0.014
[7]; ExTxA 100 nM in ICS, mean ± SEM, n = 10
  persistent current (I40 ms/Ipeak): -0.002 ± 0.004
[7]; ExTxA 1 µM, HEK NaV1.7/β1, individual cells
  persistent current: -10.167 pA and -21.3045 pA and 17.0051 pA and 11.4493 pA and -20.8771 pA and -5.293 pA and -9.443 pA and -10.0671 pA and 5.003 pA and -11.1496 pA and -2.37 pA
[7]; ExTxA 1 µM, individual cells
  persistent current (I40 ms/Ipeak): -0.00096 and -0.00393 and -0.00509 and -0.00016 and 0.00507 and -0.00078 and -0.00158 and -0.00022 and -9.8e-6 and 0.000228 and 0.002683
[8]
  ExTxA-induced persistent current (I40 ms/Ipeak; nA): 0.8135
  persistent current (I40 ms/Ipeak): 0.8735 and 0.8209 and 0.7837 and 0.8022 and 0.7553 and 0.8064 and 0.8529
[8]; ExTxA 100 nM
  Mean Diff. of persistent current, Buffer vs. ExTxA: -0.2502
[8]; ExTxA 100 nM, individual cells
  TE-671 persistent current (I40 ms/Ipeak): 0.226 and 0.2237 and 0.255 and 0.3482 and 0.2794 and 0.2574 and 0.2313 and 0.3524
[8]; ExTxA 100 nM, mean, n = 8
  TE-671 persistent current (I40 ms/Ipeak): 0.272 ± 0.018 and 0.2717
[8]; ExTxA 1 µM, individual cells
  persistent current (I40 ms/Ipeak): 0.6558 and 0.8078 and 0.6143 and 0.6966 and 0.7266 and 0.5751 and 0.7653 and 0.7674 and 0.8038 and 0.7341 and 0.767
[8]; ExTxA 1 µM, mean
  Δ persistent current (I40 ms/Ipeak; buffer cf. ExTxA): 0.719 ± 0.0230 and 0.7194
[8]; ExTxA 1 µM, wildtype TE-671 (Fig. 3d), mean, n = 7
  ExTxA-induced persistent current (I40 ms/Ipeak; nA): 0.81 ± 0.015
[9]
  persistent current (I40 ms/Ipeak): 0.004557 and -0.00296 and -0.00917 and -0.00017 and -0.00072 and 0.02041
[10]
  pain behavior after intraplantar administration in mice: elicits spontaneous pain behaviors and an axon reflex flare following intraplantar administration in mice
[11]
  depolarizing shift in the voltage-dependence of fast inactivation: 18.0 mV
  hyperpolarizing shift in the voltage-dependence of activation: 11.6 mV
[11]; ExTxA 1 µM, NaV1.7/TMEM233, mean ± SEM, n = 7, control -24.31 ± 1.11
  V50 of Activation: -35.92 ± 1.00 mV
[11]; ExTxA 1 µM, NaV1.7/TMEM233, mean ± SEM, n = 8, control -67.77 ± 1.12
  V50 of Inactivation: -49.80 ± 3.20 mV
[11]; ExTxA vs. buffer, paired t test, 7 pairs
  V50 of Activation, mean of differences (B - A): -11.61
[11]; ExTxA vs. buffer, paired t test, 8 pairs
  V50 of Inactivation, mean of differences (B - A): 17.97
[11]; [15]
  V50 of Activation: -34.91 and -38.74 and -38.17 and -35.28 and -37.07 and -36.44 and -30.84
  V50 of Inactivation: -45.67 and -44.27 and -43.05 and -47.34 and -66.38 and -46.52 and -43.25 and -61.92
[12]
  time constants of recovery from inactivation: a decrease in the time constants of recovery from inactivation
[13]
  persistent current (I40 ms/Ipeak): 0.0148 and -0.04643 and -0.01725 and -0.02481 and 0.06313 and -0.01347 and 0.009823 and -0.02206 and -0.05173 and 0.0293 and -0.02358
[14]
  DRG NaV1.9 Δ persistent current (I90 ms/Ipeak): -0.057 ± 0.028
